# Assays:
# Format in all cases: in vivo, male C57BL/6J mice
# Body weight gain = conditions: 13 days
# Experimental: (§1) In general, male C57BL/6J mice (The Jackson Laboratory, Bar Harbor, ME, USA) weighing 20–25 g were used as experimental subjects. Throughout the duration of the studies, mice were housed under standard laboratory conditions and received ad libitum access to standard laboratory mouse chow and tap water. Lights in the facility were set to go on and off at 12 h intervals with the lights going on at 7:00 a.m. In some experiments, mice also had ad libitum access to a high-fat diet containing 60% caloric content from fat (TD 06414; Harlan Teklad, Indianapolis, IN, USA) in addition to regular chow to measure dietary preferences. All procedures were approved by the Carleton University Animal Care Committee and followed the guidelines of the Canadian Council on Animal Care.
# A second cohort of mice (n = 30) was acclimated to the laboratory conditions for 1 week prior to the onset of the experiment. Mice were housed individually and their body weight and food intake was recorded daily for a baseline period of 10 days. Given that ghrelin augments the intake of preferred diets ([28]), all mice received ad libitum access to a high-fat diet (60% of calories coming from fat), in addition to regular chow, to determine if CF801 altered dietary preference. Both chow and high-fat diet pellets were provided daily to mice ad libitum in pre-weighed amounts. Mice were then assigned to four different groups: non-injected control (NIC; n = 7), vehicle (0.9% saline) (VEH; n = 7), low-dose CF801 (11 μmol⋅kg^−1 – LD; n = 8) and high-dose CF801 (22 μmol⋅kg^−1 – HD; n = 8). Each day at 09:00 hours, mice were weighed and their food intake (both chow and high-fat diet) was recorded. After this, mice received an intraperitoneal injection of either CF801 or saline (except for the non-injected controls). Following the 13-day treatment period, half the animals in each group were sacrificed, while the remaining mice were allowed to recover from treatment. […] Each carcass was analyzed separately and measurements of total fat mass, total lean mass, and total water weight were obtained for each mouse.
# [1] = Rebound food intake after a fast
# Experimental: as §1
# Mice (n = 16) were singly housed and given free access to water and regular chow for a 4-day baseline period. After this, mice were assigned to one of three groups: vehicle (n = 5), CF801 low dose (n = 5; 11 μmol⋅kg^−1 – LD), or CF801 high dose (n = 6; 22 μmol⋅kg^−1 – HD). These mice were injected intraperitoneally once a day for 4 days starting at 10:00 a.m. Following 4 days of treatment, animals were tested for rebound feeding after a fast. To do this, we removed the food from each cage 1 h before lights out (6:00 p.m.), and food was returned to the cage the following day 1 h after the last injection. Food intake was then monitored every hour for 4 h to determine the effects of CF801 on rebound feeding. Animals were then sacrificed by rapid decapitation to collect trunk blood and other tissues. Two samples were lost during sample collection, so the number of samples used to measure acylated ghrelin was reduced to n = 14.
# [2] = Food intake and dietary preference (chow and high-fat diet)
# Experimental: as §1
# A second cohort of mice (n = 30) was acclimated to the laboratory conditions for 1 week prior to the onset of the experiment. Mice were housed individually and their body weight and food intake was recorded daily for a baseline period of 10 days. Given that ghrelin augments the intake of preferred diets ([28]), all mice received ad libitum access to a high-fat diet (60% of calories coming from fat), in addition to regular chow, to determine if CF801 altered dietary preference. Both chow and high-fat diet pellets were provided daily to mice ad libitum in pre-weighed amounts. Mice were then assigned to four different groups: non-injected control (NIC; n = 7), vehicle (0.9% saline) (VEH; n = 7), low-dose CF801 (11 μmol⋅kg^−1 – LD; n = 8) and high-dose CF801 (22 μmol⋅kg^−1 – HD; n = 8). Each day at 09:00 hours, mice were weighed and their food intake (both chow and high-fat diet) was recorded. After this, mice received an intraperitoneal injection of either CF801 or saline (except for the non-injected controls). Following the 13-day treatment period, half the animals in each group were sacrificed, while the remaining mice were allowed to recover from treatment. […] At this point, the remaining mice were sacrificed. Carcasses from all animals were frozen and stored at −80°C until they were scanned for body composition analyses. Immediately prior to analysis, all carcasses were thawed to room temperature and weighed in order to obtain measures relative to total carcass mass. EchoMRI carcass analyses were performed at Health Canada, Nutrition Research Division facilities using the EchoMRI-1100 (System ID EF-020) scanner. Each carcass was analyzed separately and measurements of total fat mass, total lean mass, and total water weight were obtained for each mouse.
sequence,measurement,setting,value
GSAFLSPEHQRK KRRQRRR-NH2 [CF801],"weight gain, low dose vs NIC and VEH","Body weight gain; 11 μmol⋅kg^−1 i.p. daily, not statistically significant",tended to have lower weight gain than control NIC (p = 0.092) and VEH-treated mice (p = 0.065)
same,"weight gain, high dose","Body weight gain; 22 μmol⋅kg^−1 i.p. daily, vs saline or non-injected, F(3,29) = 3.098, p < 0.05, partial eta^2 = 0.271",decrease in weight gain
same,"weight gain, low dose vs high dose","Body weight gain; 11 vs 22 μmol⋅kg^−1 i.p. daily, p > 0.05",no differences in weight gain
same,"food consumed during first hour of refeeding, high dose","[1]; 22 μmol⋅kg^−1 i.p., after fast, F(2,24) = 2.394, p < 0.05, partial eta^2 = 0.22",lower amount of food consumed
same,"total chow consumed during 4-h food access, high dose vs saline","[1]; 22 μmol⋅kg^−1 i.p., HD vs saline, p < 0.01, Fisher LSD",statistically significant
same,"total chow consumed during 4-h food access, treatment effect","[1]; after fast, F(2,24) = 4.527, partial eta^2 = 0.411, p > 0.05 as printed",significant overall dose-dependent treatment effect
same,"food consumed, other time points","[1]; any time point of 4 h refeeding other than first hour, p > 0.05",No significant effects were seen at any other time point examined
same,food intake or weight gain during first 3 days of treatment,"[1]; i.p. once daily, 11 and 22 μmol⋅kg^−1, data not shown, p > 0.05",No effects
same,"high-fat diet intake, low dose vs NIC and VEH","[2]; 11 μmol⋅kg^−1 i.p. daily, 13 days, p's < 0.05",significantly less high-fat diet
same,"regular chow consumption, high dose","[2]; 22 μmol⋅kg^−1 i.p. daily, 13 days, vs every other group, F(3,28) = 5.305, p < 0.05, partial eta^2 = 0.41",significantly more regular chow
same,"high-fat diet intake, high dose vs NIC and VEH","[2]; 22 μmol⋅kg^−1 i.p. daily, 13 days, p's < 0.05",significantly less high-fat diet
same,"caloric intake, recovery period","[2]; 8-day recovery without injection, F(1,29) = 2.093, p > 0.05",no differences between any groups
same,"caloric intake, treatment period","[2]; 13-day i.p. treatment, 11 and 22 μmol⋅kg^−1, chow plus high-fat diet, F(1,29) = 0.783, p > 0.05",no differences between any groups
same,"high-fat diet intake, dose dependence","[2]; 13-day i.p. treatment, F(3,29) = 6.788, p < 0.05, partial eta^2 = 0.45",overall significant dose-dependent decrease in the intake of the high-fat diet
same,"high-fat diet intake, high dose vs low dose","[2]; 22 vs 11 μmol⋅kg^−1 i.p. daily, 13 days",tended to consume less than animals receiving LD CF801 (p = 0.073)
same,caloric intake at end of treatment period,[2]; once CF801 injections stop,small spike in caloric intake

# Reference: publication PMC4585333, “Novel Regulator of Acylated Ghrelin, CF801, Reduces Weight Gain, Rebound Feeding after a Fast, and Adiposity in Mice” (Frontiers in Endocrinology, 2015)
